According to ChEMBL document CHEMBL5226298, “Chemoenzymatic Synthesis of 5-Methylpsilocybin: A Tryptamine with Potential Psychedelic Activity” (2021):

How the values were obtained:
Mus musculus [1] = experiment: Induction of psychedelics activity in mouse assessed as head-twitch response at upto 10 mg/kg, ip measured for 30 min; format: functional; conditions: 0.5 h
Mus musculus [2] = experiment: Induction of psychedelics activity in C57BL/6J mouse assessed as head-twitch response at upto 10 mg/kg, ip measured for 30 min; format: functional; conditions: 0.5 h

Structure (SMILES)	ED50 (Mus musculus [1]) [mg/kg]	ED50 (Mus musculus [2]) [µmol/kg]
Cc1ccc2[nH]cc(CCN(C)C)c2c1OP(=O)(O)O	1.23	
CN(C)CCc1c[nH]c2ccccc12 [N,N-DIMETHYLTRYPTAMINE]		5.05
